We go through one compound from BindingDB's records for doi:10.1016/j.bmcl.2012.02.027 (Memorial Sloan-Kettering Cancer Center, 2012).

The structures appear in SMILES notation.

This assay deals with Presenilin-1 (Homo sapiens, UniProt P49768). Description: Inhibition of gamma-secretase in cell-free human HeLa membrane assessed as amyloid beta-42 production using APP as substrate.

For `CC(C)C[C@H](NC(=O)[C@H](Cc1ccccc1)C[C@@H](O)[C@H](Cc1ccccc1)NC(=O)OC(C)(C)C)C(=O)N[C@@H](Cc1ccc(C(=O)c2ccccc2)cc1)C(=O)NCCCCCNC(=O)CCCC[C@@H]1SC[C@@H]2NC(=O)N[C@@H]21`, the IC50 (as a rule, the concentration that inhibits the measured activity by half) worked out at 300 pM.
